Test results: patent publication US5077309A, “Prostaglandins” (National Research Development Corporation, priority 1986, dated 1991)

Assays:
[1] = molecular target: T1, human platelet system (thromboxane receptor sites) (Homo sapiens, UniProt P21731); assay: Human platelet system: antagonism of 11,9-(epoxymethano) PGH2-induced aggregation of washed platelets (Gaddum-Schild KB); type: cell-based; conditions: agonist 11,9-(epoxymethano) PGH2, compound added 5 minutes before agonist, read-out: affinity constant KB (converted)
T1 construct: Washed platelets are prepared by centrifugation; endogenous in cells; host or cells: washed human platelets
T1 sequence (P21731 1-343): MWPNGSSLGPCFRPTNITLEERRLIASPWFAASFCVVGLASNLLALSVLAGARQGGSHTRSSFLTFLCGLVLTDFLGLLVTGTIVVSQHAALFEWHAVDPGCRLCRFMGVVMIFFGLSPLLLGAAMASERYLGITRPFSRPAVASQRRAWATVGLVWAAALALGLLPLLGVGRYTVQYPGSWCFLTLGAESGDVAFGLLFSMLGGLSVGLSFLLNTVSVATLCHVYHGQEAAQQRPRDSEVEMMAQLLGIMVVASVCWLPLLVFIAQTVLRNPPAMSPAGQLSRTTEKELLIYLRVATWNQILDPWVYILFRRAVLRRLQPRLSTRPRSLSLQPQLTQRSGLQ
Description: Washed platelets are prepared by centrifugation of plateletrich human plasma at 600×g for 20 minutes. The platelet pellet is resuspended in Ca^++ -free Kreb's solution.
Addition of the agonist 11.9-(epoxymethano) PGH2 (1×10^-7 to 5×10^-7 M) causes immediate aggregation recorded as an increase in light transmission (600 nm). In a second experiment the compound under test is added 5 minutes previous to the addition of the PGH2 analogue. The dose of the PGH2 analogue added is then increased to a level which gives a similar response to that obtained in the absence of antagonist.
(§1) In the case of each system, the affinity constant, KB, for the compound under test is calculated according to the Gaddum-Schild equation (based on Law of Mass Action). [formula]

[2] = tested on: human platelet system; assay: Prostacyclin-like activity in human platelet system (antagonism of ADP); type: cell-based
[3] = tested on: guinea pig bronchoconstriction; assay: Modified Konzett-Rossler test: inhibition of PGH2 analogue-induced bronchoconstriction in anaesthetised guinea pig; type: in vivo
Description: A male albino guinea pig is anaethetised with a mixture of allyl barbituric acid and ethyl carbamate and the guinea pig is given intravenously a dose of 0.35 μg/kg of 11,9-(epoxymethane) PGH2. After a further period of 10 minutes, the guinea pig is treated intravenously with a dose of 0.3 mg/kg of trans-5-(6'-carboxy-5'-oxahexyl)-6-(1'-[N-phenylthiocarbamoyl-hydrazono]-ethyl-bicyclo [2,2,2] octane.
The guinea pig is then used in a modified Konzett-Rossler test which gives a measure of the inhibition produced by the test compound of the bronchoconstiction resulting from administration of the PGH2 derivative. This test involves artificially respiring the animals and measuring the amount of residual air with a pressure transducer.

[4] = molecular target: T2, rabbit aorta (Oryctolagus cuniculus, UniProt Q6WQI8); assay: Rabbit aorta system: antagonism of 11,9-(epoxymethano) PGH2 tension response in thoracic aorta strips (Gaddum-Schild KB); type: cell-based; conditions: agonist 11,9-(epoxymethano) PGH2; compound added 30 minutes before agonist; head KB × 10^-6
T2 construct: functional antagonism of U46619 contraction
T2 sequence (Q6WQI8 1-233): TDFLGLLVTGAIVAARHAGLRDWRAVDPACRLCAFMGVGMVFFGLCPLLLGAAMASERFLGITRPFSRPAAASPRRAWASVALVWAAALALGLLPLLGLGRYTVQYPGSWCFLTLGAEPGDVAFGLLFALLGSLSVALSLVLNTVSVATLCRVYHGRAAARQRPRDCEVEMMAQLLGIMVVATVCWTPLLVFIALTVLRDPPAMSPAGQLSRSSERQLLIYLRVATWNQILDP
Description: Spiral strips of thoracic aorta are suspended in Kreb's Henseleit solution and aerated with 95% O2 /5% CO2 at 37° C. Tension changes are recorded with a Grass FT03 force transducer. Initially, cumulative dose response curves to 11,9-(epoxymethanol) PGH2 (2×10^-9,1×10^-8, […] and 2.5×10^-7 M) are obtained. In a second experiment the individual compounds are added 30 minutes previous to the addition of the series of agonist doses.
as §1

[5] = molecular target: T3, guinea pig trachea (Cavia porcellus, UniProt A0A286Y4I8); assay: Guinea pig trachea system: antagonism of 11,9-(epoxymethano) PGH2 tension response in trachea strips (Gaddum-Schild KB); type: cell-based; conditions: agonist 11,9-(epoxymethano) PGH2; compound added 50 minutes before agonist; head KB × 10^-6
T3 construct: from tissue; host or cells: guinea pig trachea, spiral strips
T3 sequence (A0A286Y4I8 1-347): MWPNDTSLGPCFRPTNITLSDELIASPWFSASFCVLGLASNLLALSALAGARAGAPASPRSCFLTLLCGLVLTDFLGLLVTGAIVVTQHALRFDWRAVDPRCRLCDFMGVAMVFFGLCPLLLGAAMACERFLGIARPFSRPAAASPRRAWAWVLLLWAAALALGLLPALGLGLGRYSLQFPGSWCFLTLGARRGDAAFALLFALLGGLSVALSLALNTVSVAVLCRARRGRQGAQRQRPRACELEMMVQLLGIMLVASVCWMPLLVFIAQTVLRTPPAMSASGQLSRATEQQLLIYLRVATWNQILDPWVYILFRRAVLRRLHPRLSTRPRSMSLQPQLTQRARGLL
Description: Spiral strips of trachea are suspended in Kreb's-Henseleit solution, additionally containing atropine sulphate (2×10^-8 M) and indomethacin (10^-6 M), aerated with 95% O2 /5% CO2 and maintained at 37° C. Tension changes are recorded with a Grass FT03 force transducer. Initially, cumulative dose response curves to the agonist 11,9-(epoxymethano) PGH2 are obtained (typically at the same concentrations as for the rabbit aorta system). In a second experiment, the compound under test is added 50 minutes previous to the addition of the series of agonist doses.
as §1

Kb [4] [nM]	Kb [5] [nM]	Compound	also measured
–	–	CC(=NNC(=S)Nc1ccccc1)[C@@H]1[C@H]2CC[C@H](C2)[C@H]1C/C=C\CCCC(=O)O (relative stereo) [5-endo-(6'-carboxyhex-2'-Z-enyl)-6-exo-(1'-[N-(phenylthiocarbamoyl)-hydrazono]-ethyl-bicyclo [2,2,1]heptane, reference compound]	Kb [1]: 14.3 nM
–	–	CC(=NOC(c1ccccc1)c1ccccc1)[C@@H]1C2CCC(CC2)[C@H]1CCCCOCC(=O)O (relative stereo) [Example 3, trans-5-(6'-Carboxy-5'-oxahexyl)-6-[1'-(O-diphenylmethoxyimino)ethyl]-bicyclo [2,2,2] octane]	prostacyclin-like activity as evidenced by antagonism of ADP [2]: very little prostacyclin-like activity
167	–	CC(=NNC(=S)Nc1ccccc1)[C@@H]1C2CCC(CC2)[C@H]1CCCCOCC(=O)O (relative stereo) [Example 4, trans-5-(6'-Carboxy-5'-oxahexyl)-6-(1'-[N-(phenylthiocarbamoyl)-hydrazono]-ethyl)-bicyclo [2,2,2] octane]	inhibition of bronchoconstriction resulting from the PGH2 analogue ([3]; 0.3 mg/kg intravenous, 11,9-(epoxymethano) PGH2 0.35 μg/kg i.v.): markedly blocked the action of the PGH2 analogue; bronchoconstriction caused by compound itself ([3]; 0.3 mg/kg, control without prior administration of PGH2 analogue): did not itself lead to any observable bronchoconstriction; Kb [1]: 4.76 nM
–	~0.25	COc1ccc(NC(=O)NN=C(C)[C@@H]2C3CCC(CC3)[C@H]2CCCCOCC(=O)O)cc1 (relative stereo) [Example 5, trans-5-(6'-Carboxy-5'-oxahexyl)-6-(7'-[N-(p-methoxyphenyl-carbamoyl)-hydrazono]-ethyl)-bicyclo [2,2,2] octane]	–
–	14.3	CCCCCCNC(=S)NN=C(C)[C@@H]1C2CCC(CC2)[C@H]1CCCCOCC(=O)O (relative stereo) [Example 6, trans-5-(6'-Carboxy-5'-oxahexyl)-6'-(1'-[N-(hexylthiocarbamoyl)-hydrazono]-ethyl)-bicyclo [2,2,2] octane]	–
192	3.7	CC(=NNC(=S)Nc1ccccc1)[C@@H]1C2CCC(CC2)[C@H]1CCCCCOCC(=O)O (relative stereo) [Example 8, trans-5-(7'-Carboxy-6'-oxaheptyl)-6-(1'-[N-(phenylthiocarbamoyl)-hydrazano]-ethyl)-bicyclo [2,2,2] octane]	–
294	17.9	O=C(O)COCCOC[C@@H]1[C@@H]2CC[C@@H](C2)[C@H]1C=NOC(c1ccccc1)c1ccccc1 (relative stereo) [Example 10]	–
